≈ marks a conversion by molar mass, not a printed value. Like-named read-outs stand apart in the source and are kept apart here.
How the values were obtained:
Type in all cases: cell-based
[1] = tested on: Staphylococcus aureus; assay: MIC vs. aerobic bacteria, microplate broth-dilution (BHI)
[2] = tested on: Diplococcus pneumoniae; assay: as above; details: D. pneumoniae UC 41
Protocol: (§1) The Minimal Inhibitory Concentration (MIC's) of both compounds Vs. aerobic bacteria is determined using a standard microplate broth-dilution method. Brain Heart Infusion (BHI-Difco) broth medium is used, and the plates are incubated at 37° C. for 20 hrs.

[3] = tested on: Escherichia coli; assay: as above; details: UC45, 20 h, E. coli UC 45, read-out: MIC
Protocol: as §1

[4] = tested on: Klebsiella pneumoniae; assay: as above; details: K. pneumoniae UC 58
Protocol: as §1

[5] = tested on: Proteus vulgaris; assay: as above; details: P. vulgaris UC 93
Protocol: as §1

[6] = tested on: Pseudomonas aeruginosa; assay: as above; details: UC95, 20 h, Ps. aeruginosa UC 95, read-out: MIC
Protocol: as §1

[7] = tested on: Salmonella schottmuelleri; assay: as above; details: S. schottmuelleri UC 126
Protocol: as §1

[8] = tested on: Streptococcus faecalis; assay: as above; details: St. faecalis UC 694
Protocol: as §1

[9] = tested on: S. hemolyticus; assay: MIC, test procedure as given supra; details: S. hemolyticus UC 152
Protocol: as §1
The Minimal Inhibitory Concentration (MIC's) of a representative number of the compounds prepared in Examples 2-8 follows. The test procedure is as given supra.

[10] = Staphylococcus aureus, UC76, 20 h, S. aureus UC 76, read-out: MIC
[11] = Staphylococcus aureus, UC570, 20 h, S. aureus UC 570, read-out: MIC
[12] = Staphylococcus aureus, UC746, 20 h, S. aureus UC 746, read-out: MIC
[13] = Streptococcus pneumoniae, UC41, 20 h, read-out: MIC
[14] = Klebsiella pneumoniae, UC58, 20 h, read-out: MIC
[15] = Proteus vulgaris, UC93, 20 h, read-out: MIC
[16] = Enterococcus faecalis, UC694, 20 h, read-out: MIC

| SMILES | MIC [1, 10] | MIC [1, 11] | MIC [1, 12] | MIC [2, 13] | MIC [3] | MIC [4, 14] | MIC [5, 15] | MIC [6] | MIC ([7]; Salmonella, UC126, 20 h) | MIC [8, 16] | MIC ([9]; UC152, 20 h, read-out: MIC) | also measured |
| --- | --- | --- | --- | --- | --- | --- | --- | --- | --- | --- | --- | --- |
| CS[C@H]1O[C@H]([C@H](NC(=O)C2CCCCN2CCO)[C@H](C)Cl)[C@H](O)[C@H](O)[C@H]1O (stereo partly drawn) [U-44,469] | 250 µg/mL (≈ 586 µM) | 250 µg/mL (≈ 586 µM) | > 1000 µg/mL | 31.3 µg/mL (≈ 73.3 µM) | > 1000 µg/mL | > 1000 µg/mL | > 1000 µg/mL | > 1000 µg/mL | > 1000 µg/mL | 1000 µg/mL (≈ 2340 µM) | 31.3 µg/mL (≈ 73.3 µM) | – |
| CCc1ccnc(C(=O)N[C@@H]([C@H]2O[C@H](SC)[C@H](O)[C@@H](O)[C@H]2O)[C@H](C)Cl)c1 [U-45,652] | 1000 µg/mL (≈ 2470 µM) | > 1000 µg/mL | 1000 µg/mL (≈ 2470 µM) | 500 µg/mL (≈ 1230 µM) | > 1000 µg/mL | 500 µg/mL (≈ 1230 µM) | > 1000 µg/mL | > 1000 µg/mL | > 1000 µg/mL | > 1000 µg/mL | 500 µg/mL (≈ 1230 µM) | – |
| CCc1ccnc(C(=O)N[C@@H]([C@H]2O[C@H](SC)[C@H](O)[C@@H](O)[C@H]2O)[C@@H](C)O)c1 [U-45,653] | > 1000 µg/mL | > 1000 µg/mL | > 1000 µg/mL | > 1000 µg/mL | > 1000 µg/mL | > 1000 µg/mL | > 1000 µg/mL | > 1000 µg/mL | > 1000 µg/mL | > 1000 µg/mL | > 1000 µg/mL | – |
| CCc1ccc(C(=O)N[C@@H]([C@H]2O[C@H](SC)[C@H](O)[C@@H](O)[C@H]2O)[C@H](C)Cl)nc1 [U-45,656] | 62.5 µg/mL (≈ 154 µM) | 62.5 µg/mL (≈ 154 µM) | 62.5 µg/mL (≈ 154 µM) | – | > 1000 µg/mL | 1000 µg/mL (≈ 2470 µM) | > 1000 µg/mL | > 1000 µg/mL | 1000 µg/mL (≈ 2470 µM) | 1000 µg/mL (≈ 2470 µM) | 3.9 µg/mL (≈ 9.63 µM) | – |
| CS[C@H]1O[C@H]([C@H](NC(=O)c2cccnc2Cl)[C@H](C)Cl)[C@H](O)[C@H](O)[C@H]1O [U-45,657] | 125 µg/mL (≈ 304 µM) | 250 µg/mL (≈ 608 µM) | 250 µg/mL (≈ 608 µM) | – | > 1000 µg/mL | > 1000 µg/mL | > 1000 µg/mL | > 1000 µg/mL | > 1000 µg/mL | > 1000 µg/mL | 7.8 µg/mL (≈ 19 µM) | – |
| CS[C@H]1O[C@H]([C@H](NC(=O)c2ccccn2)[C@H](C)Cl)[C@H](O)[C@H](O)[C@H]1O [U-45,863] | 62.5 µg/mL (≈ 166 µM) | – | – | 62.5 µg/mL (≈ 166 µM) | > 1000 µg/mL | > 1000 µg/mL | > 1000 µg/mL | > 1000 µg/mL | > 1000 µg/mL | – | 2 µg/mL (≈ 5.31 µM) | – |
| CS[C@H]1O[C@H]([C@H](NC(=O)c2ccccn2)[C@H](C)O)[C@H](O)[C@H](O)[C@H]1O [U-46,135] | > 1000 µg/mL | > 1000 µg/mL | > 1000 µg/mL | > 1000 µg/mL | > 1000 µg/mL | > 1000 µg/mL | > 1000 µg/mL | > 1000 µg/mL | > 1000 µg/mL | > 1000 µg/mL | 1000 µg/mL (≈ 2790 µM) | – |
| CS[C@H]1O[C@H]([C@H](NC(=O)c2ccccn2)[C@@H](C)O)[C@H](O)[C@H](O)[C@H]1O [U-46,136] | > 1000 µg/mL | > 1000 µg/mL | > 1000 µg/mL | > 1000 µg/mL | > 1000 µg/mL | > 1000 µg/mL | > 1000 µg/mL | > 1000 µg/mL | > 1000 µg/mL | > 1000 µg/mL | 1000 µg/mL (≈ 2790 µM) | – |
| CS[C@H]1O[C@H]([C@H](NC(=O)c2ccncc2)[C@H](C)Cl)[C@H](O)[C@H](O)[C@H]1O [U-46,137] | > 1000 µg/mL | > 1000 µg/mL | > 1000 µg/mL | 500 µg/mL (≈ 1330 µM) | 1000 µg/mL (≈ 2650 µM) | 1000 µg/mL (≈ 2650 µM) | > 1000 µg/mL | 1000 µg/mL (≈ 2650 µM) | 1000 µg/mL (≈ 2650 µM) | > 1000 µg/mL | 1000 µg/mL (≈ 2650 µM) | – |
| CS[C@H]1O[C@H]([C@H](NC(=O)C2CCCCN2)[C@H](C)Cl)[C@H](O)[C@H](O)[C@H]1O (stereo partly drawn) [U-46,337] | – | – | – | – | > 1000 µg/mL | > 1000 µg/mL | > 1000 µg/mL | > 1000 µg/mL | > 1000 µg/mL | – | – | MIC ([1]; S. aureus UC 76, listed as 46,337): 1000 µg/mL (≈ 2610 µM); MIC ([1]; S. aureus UC 570, listed as 46,337): 1000 µg/mL (≈ 2610 µM); MIC ([1]; S. aureus UC 746, listed as 46,337): 1000 µg/mL (≈ 2610 µM); MIC ([2]; listed as 46,337): 250 µg/mL (≈ 653 µM); MIC ([8]; listed as 46,337): > 1000 µg/mL; MIC ([9]; listed as 46,337): 250 µg/mL (≈ 653 µM) |
| CS[C@H]1O[C@H]([C@H](NC(=O)C2CCCCN2)[C@H](C)Cl)[C@H](O)[C@H](O)[C@H]1O (stereo partly drawn) [U-46,465] | – | – | – | – | – | – | – | – | – | – | – | MIC ([1]; S. aureus UC 76, listed as 46,465): 3.9 µg/mL (≈ 10.2 µM); MIC ([1]; S. aureus UC 570, listed as 46,465): 31.2 µg/mL (≈ 81.5 µM); MIC ([1]; S. aureus UC 746, listed as 46,465): 3.9 µg/mL (≈ 10.2 µM); MIC ([2]; listed as 46,465): < 1.0 µg/mL; MIC [4]: 500 µg/mL (≈ 1310 µM); MIC [5]: 1000 µg/mL (≈ 2610 µM); MIC [7]: 1000 µg/mL (≈ 2610 µM); MIC ([8]; listed as 46,465): 3.9 µg/mL (≈ 10.2 µM); MIC ([9]; listed as 46,465): < 1.0 µg/mL |
| CS[C@H]1O[C@H]([C@H](NC(=O)C2CCCCN2C)[C@H](C)Cl)[C@H](O)[C@H](O)[C@H]1O (stereo partly drawn) [U-46,699] | 3.9 µg/mL (≈ 9.83 µM) | 7.8 µg/mL (≈ 19.7 µM) | 7.8 µg/mL (≈ 19.7 µM) | < 1 µg/mL | 1000 µg/mL (≈ 2520 µM) | 250 µg/mL (≈ 630 µM) | 1000 µg/mL (≈ 2520 µM) | > 1000 µg/mL | > 1000 µg/mL | 15.6 µg/mL (≈ 39.3 µM) | 3.9 µg/mL (≈ 9.83 µM) | – |
| CS[C@H]1O[C@H]([C@H](NC(=O)C2CCCCN2)[C@@H](C)O)[C@H](O)[C@H](O)[C@H]1O (stereo partly drawn) [U-60,492] | – | – | – | – | – | – | – | – | – | – | – | MIC ([1]; S. aureus UC 570): > 1000 µg/mL; MIC ([1]; S. aureus UC 746): 250 µg/mL (≈ 686 µM); MIC [2]: 31.2 µg/mL (≈ 85.6 µM); MIC [8]: > 1000 µg/mL; MIC [9]: 15.6 µg/mL (≈ 42.8 µM) |
| CS[C@H]1O[C@H]([C@H](NC(=O)C2CCCCN2)[C@@H](C)O)[C@H](O)[C@H](O)[C@H]1O (stereo partly drawn) [U-60,493] | 1000 µg/mL (≈ 2740 µM) | 1000 µg/mL (≈ 2740 µM) | 250 µg/mL (≈ 686 µM) | 15.6 µg/mL (≈ 42.8 µM) | > 1000 µg/mL | > 1000 µg/mL | > 1000 µg/mL | > 1000 µg/mL | > 1000 µg/mL | 1000 µg/mL (≈ 2740 µM) | 7.8 µg/mL (≈ 21.4 µM) | – |

— US4310660A, “Lincomycin compounds” (The Upjohn Company, priority 1980, dated 1982)
